Where two headings read alike, the source gives them in different places.
Columns and labels:
HT29 cells = assay: CyQuant cell proliferation activity test; format: cell-based; conditions: read-out: HT-29 Cell Viability_IC50_nM
Method: Materials and Cells: HT29 cells were purchased from Nanjing Cobioer Biosciences Co., Ltd.; RPMI-1640 medium, fetal bovine serum, Trypsin-EDTA (0.25%), 96-well plates, and CyQuant reagents were purchased from ThermoFisher (USA); DMSO was purchased from SIGMA (USA).
Cell Culture: Culture HT29 cells with RPMI-1640 containing 10% fetal bovine serum under the condition of 37° C. and 5% CO2. Only cells in the logarithmic growth phase can be used for the test.
Cell Proliferation Activity Test: Use the CyQuant reagent to detect the proliferation inhibitory activity of compounds on HT29 cells. The cell density was adjusted, and 100 μL per well was inoculated into a 96-well plate (HT29 at 2000 cells per well), then incubated overnight at 37° C. and 5% CO2. Add compounds of various target concentrations (initial concentration of 3000 nM, 3-fold dilution, 9 concentration gradients), and make the DMSO content 0.2%. The cell plate was incubated at 37° C. in 5% CO2 for 3 days. Incubate with CyQuant reagent for 1 h, read the plate by Envision, and calculate IC50 using XLFIT.

[1] = target: T1, Human KIF18A (amino acid sequence 1-417) (Homo sapiens, UniProt Q8NI77); assay: Enzymatic activity test (ADP-Glo, microtubule-stimulated ATPase); format: biochemical; conditions: KIF18A 2.5 nM, ATP 25 μM, microtubules 60 μg/mL, 120 min at ambient temperature, ADP-Glo chemiluminescence; read-out: Enzyme Activity
T1 construct: purchased Viva Biotech (Shanghai) Ltd
T1 sequence (Q8NI77 1-417): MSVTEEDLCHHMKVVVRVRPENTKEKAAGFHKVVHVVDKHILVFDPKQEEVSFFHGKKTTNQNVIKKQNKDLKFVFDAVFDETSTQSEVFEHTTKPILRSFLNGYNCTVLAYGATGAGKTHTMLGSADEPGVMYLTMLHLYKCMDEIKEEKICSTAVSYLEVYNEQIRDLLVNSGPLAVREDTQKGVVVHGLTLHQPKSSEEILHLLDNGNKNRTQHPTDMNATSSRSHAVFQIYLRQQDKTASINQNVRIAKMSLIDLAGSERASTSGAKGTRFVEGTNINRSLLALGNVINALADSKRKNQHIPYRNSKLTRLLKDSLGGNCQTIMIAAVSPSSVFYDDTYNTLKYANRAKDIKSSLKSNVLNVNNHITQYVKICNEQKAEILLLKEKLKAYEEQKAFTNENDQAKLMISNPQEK
Method: Materials: Human KIF18A (amino acid sequence 1-417) was purchased from Viva Biotech (Shanghai) Ltd.; the ADP-Glo™ protein kinase kit was acquired from Promega, USA; tubulin was sourced from Cytoskeleton, USA; and the 384-well assay plate and Envision multifunctional microplate reader were obtained from PerkinElmer, USA.
Enzymatic Activity Test: Dissolve the compound powder in DMSO to prepare a stock solution of 10 mM. Then perform gradient dilution for the compounds in the microplate to achieve a final concentration of […]. Then, add 2.5 μL each of tubulin, compound, ATP, and KIF18A protein to the microplate in sequence for reaction at ambient temperature for 120 min. The final concentrations in the enzyme reaction are 60 μg/mL for microtubules, 25 μM for ATP, and 2.5 nM for KIF18A protein. After the enzyme reaction, add 10 μL of ADP-GLO reaction reagent to each well and incubate at ambient temperature for 30 min. After that, add […] to each well and incubate at ambient temperature for 30 min in the dark. Finally, perform chemiluminescence detection using the PerkinElmer Envision.

OVCAR3 cells = assay: Cell proliferation activity test (CyQUANT Direct); format: cell-based; conditions: read-out: OVCAR-3 Cell Viability_IC50_nM
Method: Materials and Cells: OVCAR3 cells were purchased from Nanjing Cobioer Biosciences Co., Ltd. RPMI-1640 medium, fetal bovine serum, and the CyQUANT Direct Cell Proliferation Assay kit were purchased from Thermo Fisher Scientific, USA; 96-well cell culture plates were sourced from Corning, USA.
Cell Culture: Culture OVCAR3 cells with RPMI-1640 medium containing 10% fetal bovine serum and incubate them in a 5% CO2 incubator at 37° C. Only cells in the logarithmic growth phase can be used for the test.
Inoculate OVCAR3 cells into a 96-well cell culture plate at 90 μL per well and incubate overnight in a 5% CO2 incubator at 37° C. Dissolve the compound powder in DMSO to prepare a stock solution of 10 mM. Then perform gradient dilution for the compounds in the microplate to achieve a final concentration of 0-10 μM. Add 10 μL of cell culture medium containing compounds to each well to make the final DMSO content 0.2%. Incubate the cell plates in a 5% CO2 incubator at 37° C. for 3 days. Add 100 μL of CyQUANT detection reagent to each well, react at 37° C. for 60 min, and perform fluorescence detection using the PerkinElmer Envision.

[2] = Homo sapiens, HT-29, 72 h, HT29 at 2000 cells per well, 3 days incubation, CyQuant, initial concentration 3000 nM, DMSO 0.2%
[3] = Homo sapiens, OVCAR-3, 72 h, OVCAR3 cells, 3 days incubation, CyQUANT fluorescence detection, DMSO 0.2%

## Cc1cc(NC(=O)c2c(N3CCC4(CC3)CC4)cc(NS(=O)(=O)CCO)c3c2OCC3)nc(N2CCC(F)(F)CC2)n1 [Example 3, N-(2-(4,4-difluoropiperidin-1-yl)-6-methylpyrimidin-4-yl)-4-(2-hydroxyethylsulfonamido)-6-(6-azaspiro[2.5]octan-6-yl)-2,3-dihydrobenzofuran-7-carboxamide]
HT29 cells; [2]
  IC50: 45 nM
[1]
  IC50: 27 nM
OVCAR3 cells; [3]
  IC50: 28 nM

## CC(CO)S(=O)(=O)Nc1cc(N2CCC3(CC2)CC3)c(C(=O)Nc2cc3sc(N)nc3c(N3CCC(F)(F)CC3)c2F)c2ccccc12 (stereo not drawn) [Example 10, N-[2-amino-4-(4,4-difluoropiperidin-1-yl)-5-fluoro-1,3-benzothiazol-6-yl]-2-{6-azaspiro[2.5]octan-6-yl}-4-(1-hydroxypropane-2-sulfonamido)naphthalene-1-carboxamide]
HT29 cells; [2]
  IC50: 44 nM
[1]
  IC50: 180 nM
OVCAR3 cells; [3]
  IC50: 35 nM

## COc1cc(NC(=O)c2c(N3CCC4(CC3)CC4)cc(NS(=O)(=O)CCO)c3ccccc23)nc(N2CCC(F)(F)CC2)n1 [Example 7, 2-{6-Azaspiro[2.5]octan-6-yl}-N-[2-(4,4-difluoropiperidin-1-yl)-6-methoxypyrimidin-4-yl]-4-(2-hydroxyethanesulfonamido)naphthalene-1-carboxamide]
HT29 cells; [2]
  IC50: 123 nM
[1]
  IC50: 635 nM
OVCAR3 cells; [3]
  IC50: 98 nM

## Cc1cc(NC(=O)c2c(N3CCC4(CC3)CC4)cc(NS(=O)(=O)CCO)n3ccnc23)nc(N2CCC(F)(F)CC2)n1 [Example 1, N-(2-(4,4-difluoropiperidin-1-yl)-6-methylpyrimidin-4-yl)-5-(2-hydroxyethylsulfonamido)-7-(6-azaspiro[2.5]octan-6-yl)imidazo[1,2-a]pyridine-8-carboxamide]
HT29 cells; [2]
  IC50: 877 nM
[1]
  IC50: 112 nM
OVCAR3 cells; [3]
  IC50: 442 nM

## O=C(Nc1cc2cccnc2c(N2CCC(F)(F)CC2)c1F)c1c(N2CCC3(CC2)CC3)cc(NS(=O)(=O)CCO)c2ccccc12 [Example 6, 2-{6-Azaspiro[2.5]octan-6-yl}-N-[8-(4,4-difluoropiperidin-1-yl)-7-fluoroquinolin-6-yl]-4-(2-hydroxyethanesulfonamido)naphthalene-1-carboxamide]
HT29 cells; [2]
  IC50: 74 nM
[1]
  IC50: 237 nM
OVCAR3 cells; [3]
  IC50: 67 nM

## Cc1cc(NC(=O)c2c(N3CCC4(CC3)CC4)cc(NS(=O)(=O)C(C)(C)CO)c3c2CCC3)nc(N2CCC(F)(F)CC2)n1 [Example 11, N-(2-(4,4-difluoropiperidin-1-yl)-6-methylpyrimidin-4-yl)-7-((2-hydroxy-1,1-dimethylethyl)sulfonamide)-5-(6-azaspiro[2.5]oct-6-yl)-2,3-dihydro-1H-indene-4-carboxamide]
HT29 cells; [2]
  IC50: 29 nM
[1]
  IC50: 170 nM
OVCAR3 cells; [3]
  IC50: 20 nM

## Cc1cc(NC(=O)c2c(N3CCC4(CC3)CC4)cc(NS(=O)(=O)CCO)c3ncccc23)nc(N2CCC(F)(F)CC2)n1 [Example 5, N-(2-(4,4-difluoropiperidin-1-yl)-6-methylpyrimidin-4-yl)-8-(2-hydroxyethanesulfonamido)-6-(6-azaspiro[2.5]octan-6-yl)quinoline-5-carboxamide]
HT29 cells; [2]
  IC50: 65 nM
[1]
  IC50: 134 nM
OVCAR3 cells; [3]
  IC50: 36 nM

## Cc1cc(NC(=O)c2c(N3CCC4(CC3)CC4)cc(NS(=O)(=O)CCO)c3ccccc23)nc(N2CCC(F)(F)CC2)n1 [Example 4, N-(2-(4,4-difluoropiperidin-1-yl)-6-methylpyrimidin-4-yl)-4-(2-_hydroxyethylsulfonamido)-2-(6-azaspiro[2.5]octan-6-yl)-1-naphthamide]
HT29 cells
  IC50: 52 nM
[1]
  IC50: 173 nM
OVCAR3 cells
  IC50: 37 nM

## Cc1cc(NC(=O)c2c(N3CCC4(CC3)CC4)cc(NS(=O)(=O)CCO)c3ccoc23)nc(N2CCC(F)(F)CC2)n1 [Example 2, N-(2-(4,4-difluoropiperidin-1-yl)-6-methylpyrimidin-4-yl)-4-(2-hydroxyethylsulfonamido)-6-(6-azaspiro[2.5]octan-6-yl)-benzofuran-7-carboxamide]
HT29 cells; [2]
  IC50: 50 nM
[1]
  IC50: 29 nM
OVCAR3 cells; [3]
  IC50: 25 nM

## Cc1cc(NC(=O)c2c(N3CCC4(CC3)CC4)cc(NS(=O)(=O)CCO)c3c2CCC3)nc(N2CCC(F)(F)CC2)n1 [Example 9, N-(2-(4,4-difluoropiperidin-1-yl)-6-methylpyrimidin-4-yl)-7-((2-hydroxyethyl)sulfonamido)-5-(6-azaspiro[2.5]oct-6-yl)-2,3-dihydro-1H-indene-4-carboxamide]
HT29 cells; [2]
  IC50: 37 nM
[1]
  IC50: 176 nM
OVCAR3 cells; [3]
  IC50: 26 nM

## Cc1cc(NC(=O)c2c(N3CCC4(CC3)CC4)cc(NS(=O)(=O)CCO)c3cccnc23)nc(N2CCC(F)(F)CC2)n1 [Example 8, N-(2-(4,4-difluoropiperidin-1-yl)-6-methylpyrimidin-4-yl)-5-((2-hydroxyethyl)sulfonamido)-7-(6-azaspiro[2.5]octan-6-yl)quinoline-8-carboxamide]
HT29 cells; [2]
  IC50: > 1000 nM
[1]
  IC50: 280 nM
OVCAR3 cells; [3]
  IC50: 488 nM
